ChEMBL document CHEMBL4049403, “Oligo-aspartic acid conjugates with benzo[c][2,6]naphthyridine-8-carboxylic acid scaffold as picomolar inhibitors of CK2” (Bioorg Med Chem, 2017)
Where a SMILES comes first, the peptide text is derived from it. The star is where a group is joined. X1 = O=C(O)c1ccc2c(c1)nc(OCCCCCCCCC(=O)*)c1ccncc12

Experiments:
[1] = biological target: RAC-alpha serine/threonine-protein kinase (Homo sapiens) (UniProt P31749); assay: Inhibition of human PKBa assessed as residual activity at 1 uM in presence of [33P]ATP by filter binding assay relative to control
[2] = biological target: Ephrin type-A receptor 2 (Homo sapiens) (UniProt P29317); assay: Inhibition of human EPHA2 assessed as residual activity at 1 uM in presence of [33P]ATP by filter binding assay relative to control
[3] = biological target: Serine/threonine-protein kinase MARK1 (Homo sapiens) (UniProt Q9P0L2); assay: Inhibition of human MARK1 assessed as residual activity at 1 uM in presence of [33P]ATP by filter binding assay relative to control
[4] = biological target: MAP/microtubule affinity-regulating kinase 4 (Homo sapiens) (UniProt Q96L34); assay: Inhibition of human MARK4 assessed as residual activity at 1 uM in presence of [33P]ATP by filter binding assay relative to control
[5] = biological target: Insulin receptor-related protein (Homo sapiens) (UniProt P14616); assay: Inhibition of human IRR assessed as residual activity at 1 uM in presence of [33P]ATP by filter binding assay relative to control
[6] = biological target: Mitogen-activated protein kinase 8 (Homo sapiens) (UniProt P45983); assay: Inhibition of human JNK1 assessed as residual activity at 1 uM in presence of [33P]ATP by filter binding assay relative to control
[7] = biological target: Tyrosine-protein kinase JAK2 (Homo sapiens) (UniProt O60674); assay: Inhibition of human JAK2 assessed as residual activity at 1 uM in presence of [33P]ATP by filter binding assay relative to control
[8] = biological target: Serine/threonine-protein kinase D1 (Homo sapiens) (UniProt Q15139); assay: Inhibition of human PKD1 assessed as residual activity at 1 uM in presence of [33P]ATP by filter binding assay relative to control
[9] = biological target: Serine/threonine-protein kinase Chk2 (Homo sapiens) (UniProt O96017); assay: Inhibition of human CHK2 assessed as residual activity at 1 uM in presence of [33P]ATP by filter binding assay relative to control
[10] = biological target: Mitogen-activated protein kinase kinase kinase 1 (Homo sapiens) (UniProt Q13233); assay: Inhibition of human MEKK1 assessed as residual activity at 1 uM in presence of [33P]ATP by filter binding assay relative to control
[11] = biological target: Aurora kinase B (Homo sapiens) (UniProt Q96GD4); assay: Inhibition of human Aurora B assessed as residual activity at 1 uM in presence of [33P]ATP by filter binding assay relative to control
[12] = biological target: Ephrin type-B receptor 3 (Homo sapiens) (UniProt P54753); assay: Inhibition of human EPHB3 assessed as residual activity at 1 uM in presence of 33P-ATP by filter-binding assay relative to control
[13] = biological target: Serine/threonine-protein kinase PLK1 (Homo sapiens) (UniProt P53350); assay: Inhibition of human PLK1 assessed as residual activity at 1 uM in presence of 33P-ATP by filter-binding assay relative to control
Homo sapiens = species on record: Homo sapiens; assay: Inhibition of human CK2 assessed as residual activity at 1 uM in presence of 33P-ATP by filter-binding assay relative to control
[14] = biological target: Serine/threonine-protein kinase pim-1 (Homo sapiens) (UniProt P11309); assay: Inhibition of human PIM1 assessed as residual activity at 1 uM in presence of 33P-ATP by filter-binding assay relative to control
[15] = biological target: Dual specificity mitogen-activated protein kinase kinase 6 (Homo sapiens) (UniProt P52564); assay: Inhibition of human MKK6 assessed as residual activity at 1 uM in presence of [33P]ATP by filter binding assay relative to control
[16] = biological target: Ribosomal protein S6 kinase alpha-3 (Homo sapiens) (UniProt P51812); assay: Inhibition of human RSK2 assessed as residual activity at 1 uM in presence of 33P-ATP by filter-binding assay relative to control
[17] = biological target: Homeodomain-interacting protein kinase 3 (Homo sapiens) (UniProt Q9H422); assay: Inhibition of human HIPK3 assessed as residual activity at 1 uM in presence of 33P-ATP by filter-binding assay relative to control
[18] = biological target: NUAK family SNF1-like kinase 1 (Homo sapiens) (UniProt O60285); assay: Inhibition of human NUAK1 assessed as residual activity at 1 uM in presence of [33P]ATP by filter binding assay relative to control
[19] = biological target: Tau-tubulin kinase 1 (Homo sapiens) (UniProt Q5TCY1); assay: Inhibition of human TTBK1 assessed as residual activity at 1 uM in presence of [33P]ATP by filter binding assay relative to control
[20] = biological target: MAP kinase-activated protein kinase 2 (Homo sapiens) (UniProt P49137); assay: Inhibition of human MAPKAP-K2 assessed as residual activity at 1 uM in presence of [33P]ATP by filter binding assay relative to control
[21] = biological target: RAC-beta serine/threonine-protein kinase (Homo sapiens) (UniProt P31751); assay: Inhibition of human PKBb assessed as residual activity at 1 uM in presence of [33P]ATP by filter binding assay relative to control
[22] = biological target: Interleukin-1 receptor-associated kinase 4 (Homo sapiens) (UniProt Q9NWZ3); assay: Inhibition of human IRAK4 assessed as residual activity at 1 uM in presence of [33P]ATP by filter binding assay relative to control
[23] = biological target: CDK2/Cyclin A2 (Homo sapiens) (UniProt P24941+P20248); assay: Inhibition of human CDK2/Cyclin A assessed as residual activity at 1 uM in presence of [33P]ATP by filter binding assay relative to control; type: protein-complex assay
[24] = biological target: Ephrin type-B receptor 4 (Homo sapiens) (UniProt P54760); assay: Inhibition of human EPHB4 assessed as residual activity at 1 uM in presence of [33P]ATP by filter binding assay relative to control
[25] = biological target: Serine/threonine-protein kinase N2 (Homo sapiens) (UniProt Q16513); assay: Inhibition of human PRK2 assessed as residual activity at 1 uM in presence of [33P]ATP by filter binding assay relative to control
[26] = biological target: Serine/threonine-protein kinase STK11 (Homo sapiens) (UniProt Q15831); assay: Inhibition of human LKB1 assessed as residual activity at 1 uM in presence of [33P]ATP by filter binding assay relative to control
[27] = biological target: Death-associated protein kinase 1 (Homo sapiens) (UniProt P53355); assay: Inhibition of human DAPK1 assessed as residual activity at 1 uM in presence of 33P-ATP by filter-binding assay relative to control
[28] = biological target: Serine/threonine-protein kinase tousled-like 1 (Homo sapiens) (UniProt Q9UKI8); assay: Inhibition of human TLK1 assessed as residual activity at 1 uM in presence of 33P-ATP by filter-binding assay relative to control
[29] = biological target: Ephrin type-A receptor 4 (Homo sapiens) (UniProt P54764); assay: Inhibition of human EPH-A4 assessed as residual activity at 1 uM in presence of [33P]ATP by filter binding assay relative to control

Homeodomain-interacting protein kinase 3 (Homo sapiens), sequence (Q9H422 whole entry, looked up): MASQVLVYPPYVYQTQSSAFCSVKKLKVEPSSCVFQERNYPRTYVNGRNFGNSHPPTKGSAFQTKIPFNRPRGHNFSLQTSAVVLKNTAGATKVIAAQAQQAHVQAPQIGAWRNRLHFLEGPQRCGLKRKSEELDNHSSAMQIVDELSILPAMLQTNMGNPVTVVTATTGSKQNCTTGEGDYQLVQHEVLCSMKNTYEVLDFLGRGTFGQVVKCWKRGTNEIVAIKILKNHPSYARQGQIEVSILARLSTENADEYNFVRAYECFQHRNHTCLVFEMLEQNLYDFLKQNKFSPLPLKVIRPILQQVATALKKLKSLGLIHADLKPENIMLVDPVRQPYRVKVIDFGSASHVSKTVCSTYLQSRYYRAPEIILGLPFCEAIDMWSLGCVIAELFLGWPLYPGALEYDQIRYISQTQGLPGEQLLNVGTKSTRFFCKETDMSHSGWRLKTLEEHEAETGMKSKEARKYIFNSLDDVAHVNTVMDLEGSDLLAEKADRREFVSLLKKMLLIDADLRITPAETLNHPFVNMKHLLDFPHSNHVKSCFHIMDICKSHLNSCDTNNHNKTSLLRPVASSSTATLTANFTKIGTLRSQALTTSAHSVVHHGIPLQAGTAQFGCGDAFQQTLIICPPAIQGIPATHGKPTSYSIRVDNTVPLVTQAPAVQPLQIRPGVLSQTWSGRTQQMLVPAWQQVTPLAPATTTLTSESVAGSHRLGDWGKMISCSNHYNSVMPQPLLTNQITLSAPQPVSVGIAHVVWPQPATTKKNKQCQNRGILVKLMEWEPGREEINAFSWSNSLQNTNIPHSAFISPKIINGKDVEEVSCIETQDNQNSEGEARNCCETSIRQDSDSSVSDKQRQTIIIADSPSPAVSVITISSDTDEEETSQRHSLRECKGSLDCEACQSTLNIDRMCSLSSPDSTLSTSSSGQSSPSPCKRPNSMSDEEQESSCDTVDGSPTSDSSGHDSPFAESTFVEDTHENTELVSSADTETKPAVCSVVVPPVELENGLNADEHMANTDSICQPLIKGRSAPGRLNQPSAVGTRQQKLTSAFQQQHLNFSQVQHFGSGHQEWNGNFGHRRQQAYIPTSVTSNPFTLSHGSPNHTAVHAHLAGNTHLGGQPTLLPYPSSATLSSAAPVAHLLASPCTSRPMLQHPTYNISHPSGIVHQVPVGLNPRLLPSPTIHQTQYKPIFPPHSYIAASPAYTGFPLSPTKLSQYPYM
RAC-alpha serine/threonine-protein kinase (Homo sapiens), sequence (P31749 whole entry): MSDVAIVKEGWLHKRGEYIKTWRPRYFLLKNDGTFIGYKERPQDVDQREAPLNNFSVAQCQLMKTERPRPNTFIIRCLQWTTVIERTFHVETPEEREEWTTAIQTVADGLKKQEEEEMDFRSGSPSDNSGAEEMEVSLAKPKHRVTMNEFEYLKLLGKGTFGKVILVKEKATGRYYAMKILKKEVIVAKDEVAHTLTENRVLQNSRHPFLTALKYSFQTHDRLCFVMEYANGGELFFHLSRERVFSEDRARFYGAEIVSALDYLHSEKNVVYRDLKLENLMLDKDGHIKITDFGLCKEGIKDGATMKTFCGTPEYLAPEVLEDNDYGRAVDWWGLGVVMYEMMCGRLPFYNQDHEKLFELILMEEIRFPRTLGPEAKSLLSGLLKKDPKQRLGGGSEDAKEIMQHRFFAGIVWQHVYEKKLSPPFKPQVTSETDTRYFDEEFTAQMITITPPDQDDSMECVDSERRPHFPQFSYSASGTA
Serine/threonine-protein kinase PLK1 (Homo sapiens), sequence (P53350 whole entry): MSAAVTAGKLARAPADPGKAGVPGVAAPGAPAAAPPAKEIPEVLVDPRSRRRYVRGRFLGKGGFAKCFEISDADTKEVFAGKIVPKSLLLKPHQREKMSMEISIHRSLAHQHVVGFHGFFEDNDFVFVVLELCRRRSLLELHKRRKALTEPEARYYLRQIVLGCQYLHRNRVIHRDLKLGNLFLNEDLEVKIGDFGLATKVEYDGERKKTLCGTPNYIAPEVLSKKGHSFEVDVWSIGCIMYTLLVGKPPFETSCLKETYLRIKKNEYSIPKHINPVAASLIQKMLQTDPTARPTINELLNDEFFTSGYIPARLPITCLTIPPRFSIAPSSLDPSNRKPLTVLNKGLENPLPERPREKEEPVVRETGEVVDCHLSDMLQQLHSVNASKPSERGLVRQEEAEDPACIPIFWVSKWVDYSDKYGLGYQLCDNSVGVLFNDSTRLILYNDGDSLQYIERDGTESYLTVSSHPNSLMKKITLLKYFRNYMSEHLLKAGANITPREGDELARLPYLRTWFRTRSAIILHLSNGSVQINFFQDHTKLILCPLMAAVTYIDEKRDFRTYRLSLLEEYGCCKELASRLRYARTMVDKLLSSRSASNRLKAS
Interleukin-1 receptor-associated kinase 4 (Homo sapiens), sequence (Q9NWZ3 whole entry): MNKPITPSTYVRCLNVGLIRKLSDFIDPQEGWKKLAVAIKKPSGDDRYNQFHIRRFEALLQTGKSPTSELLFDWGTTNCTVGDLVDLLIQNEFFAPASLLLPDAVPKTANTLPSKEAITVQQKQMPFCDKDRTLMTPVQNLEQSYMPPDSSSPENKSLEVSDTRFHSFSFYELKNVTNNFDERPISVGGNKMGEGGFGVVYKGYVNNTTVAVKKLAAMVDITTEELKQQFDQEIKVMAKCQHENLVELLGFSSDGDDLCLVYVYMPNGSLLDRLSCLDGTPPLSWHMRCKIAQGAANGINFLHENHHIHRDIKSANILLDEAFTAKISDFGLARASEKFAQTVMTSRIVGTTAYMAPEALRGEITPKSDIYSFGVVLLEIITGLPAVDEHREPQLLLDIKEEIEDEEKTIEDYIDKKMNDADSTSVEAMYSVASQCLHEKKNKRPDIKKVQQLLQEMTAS
Ephrin type-B receptor 4 (Homo sapiens), sequence (P54760 whole entry): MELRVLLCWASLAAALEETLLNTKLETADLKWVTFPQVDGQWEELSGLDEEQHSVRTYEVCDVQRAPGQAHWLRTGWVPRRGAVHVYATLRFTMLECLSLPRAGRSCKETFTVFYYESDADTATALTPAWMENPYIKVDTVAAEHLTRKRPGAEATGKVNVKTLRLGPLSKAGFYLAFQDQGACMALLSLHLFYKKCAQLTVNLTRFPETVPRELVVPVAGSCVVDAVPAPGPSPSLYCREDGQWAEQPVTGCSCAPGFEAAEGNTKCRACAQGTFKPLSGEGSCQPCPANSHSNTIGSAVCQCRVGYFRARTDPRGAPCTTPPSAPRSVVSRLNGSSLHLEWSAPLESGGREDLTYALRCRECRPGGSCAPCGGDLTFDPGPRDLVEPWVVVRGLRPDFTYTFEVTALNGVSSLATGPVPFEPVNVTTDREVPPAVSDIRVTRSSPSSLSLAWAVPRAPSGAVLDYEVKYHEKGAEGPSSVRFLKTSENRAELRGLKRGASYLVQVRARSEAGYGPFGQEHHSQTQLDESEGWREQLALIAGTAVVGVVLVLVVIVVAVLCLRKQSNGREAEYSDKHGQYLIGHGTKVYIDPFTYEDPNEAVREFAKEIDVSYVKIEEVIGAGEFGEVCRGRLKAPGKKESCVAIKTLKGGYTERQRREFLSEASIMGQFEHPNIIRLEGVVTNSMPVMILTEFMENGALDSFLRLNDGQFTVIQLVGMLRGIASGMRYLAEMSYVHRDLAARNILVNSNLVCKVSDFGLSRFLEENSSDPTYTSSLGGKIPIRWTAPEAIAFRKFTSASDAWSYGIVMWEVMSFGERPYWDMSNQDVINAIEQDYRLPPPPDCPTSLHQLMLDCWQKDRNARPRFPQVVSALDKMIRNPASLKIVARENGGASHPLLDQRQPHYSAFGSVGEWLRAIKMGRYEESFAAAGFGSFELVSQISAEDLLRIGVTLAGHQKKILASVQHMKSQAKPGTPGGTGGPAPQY
Mitogen-activated protein kinase 8 (Homo sapiens), sequence (P45983 whole entry): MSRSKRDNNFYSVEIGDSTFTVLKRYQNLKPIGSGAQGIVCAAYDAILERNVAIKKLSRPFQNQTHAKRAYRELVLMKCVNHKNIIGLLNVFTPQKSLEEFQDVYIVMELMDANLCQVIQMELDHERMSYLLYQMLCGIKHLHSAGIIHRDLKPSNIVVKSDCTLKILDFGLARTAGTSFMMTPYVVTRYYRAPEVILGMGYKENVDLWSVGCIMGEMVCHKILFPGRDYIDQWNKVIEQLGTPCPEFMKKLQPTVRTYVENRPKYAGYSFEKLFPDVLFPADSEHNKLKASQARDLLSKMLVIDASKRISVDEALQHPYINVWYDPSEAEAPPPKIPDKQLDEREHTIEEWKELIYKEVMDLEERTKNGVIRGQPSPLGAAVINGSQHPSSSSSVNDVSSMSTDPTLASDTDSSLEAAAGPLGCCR
RAC-beta serine/threonine-protein kinase (Homo sapiens), sequence (P31751 whole entry): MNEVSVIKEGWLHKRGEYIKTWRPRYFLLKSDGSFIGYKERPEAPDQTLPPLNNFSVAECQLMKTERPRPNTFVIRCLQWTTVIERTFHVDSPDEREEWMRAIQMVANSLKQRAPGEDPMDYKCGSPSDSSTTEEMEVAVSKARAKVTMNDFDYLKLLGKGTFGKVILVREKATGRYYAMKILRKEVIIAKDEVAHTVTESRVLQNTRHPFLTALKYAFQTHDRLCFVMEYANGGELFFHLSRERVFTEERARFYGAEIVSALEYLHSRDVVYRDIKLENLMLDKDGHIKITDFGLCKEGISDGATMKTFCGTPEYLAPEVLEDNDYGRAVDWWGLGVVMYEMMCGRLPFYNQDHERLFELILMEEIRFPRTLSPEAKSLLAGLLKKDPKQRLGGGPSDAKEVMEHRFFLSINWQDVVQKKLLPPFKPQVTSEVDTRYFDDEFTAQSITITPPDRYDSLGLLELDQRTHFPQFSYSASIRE
Dual specificity mitogen-activated protein kinase kinase 6 (Homo sapiens), sequence (P52564 whole entry): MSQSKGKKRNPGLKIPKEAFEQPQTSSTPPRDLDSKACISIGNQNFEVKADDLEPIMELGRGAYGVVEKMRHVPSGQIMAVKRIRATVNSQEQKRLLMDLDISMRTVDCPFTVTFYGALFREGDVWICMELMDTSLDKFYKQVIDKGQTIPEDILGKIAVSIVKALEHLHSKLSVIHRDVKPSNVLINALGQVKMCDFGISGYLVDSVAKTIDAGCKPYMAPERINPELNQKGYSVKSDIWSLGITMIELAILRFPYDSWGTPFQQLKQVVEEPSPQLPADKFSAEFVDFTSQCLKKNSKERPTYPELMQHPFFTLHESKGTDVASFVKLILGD

SMILES: NCCCC[C@H](NC(=O)[C@H](CC(=O)O)NC(=O)[C@H](CC(=O)O)NC(=O)[C@H](CC(=O)O)NC(=O)[C@H](CC(=O)O)NC(=O)[C@H](CC(=O)O)NC(=O)[C@H](CC(=O)O)NC(=O)CCCCCCCCOc1nc2cc(C(=O)O)ccc2c2cnccc12)C(=O)O (X1-DDDDDDK-OH)
- Activity [1]: 89%
- Activity [2]: 87%
- Activity [3]: 79%
- Activity [4]: 91%
- Activity [5]: 92%
- Activity [6]: 91%
- Activity [7]: 72%
- Activity [8]: 79%
- Activity [9]: 92%
- Activity [10]: 106%
- Activity [11]: 86%
- Activity [12]: 56%
- Activity [13]: 23%
- Activity (Homo sapiens): 1%
- Activity [14]: 64%
- Activity [15]: 74%
- Activity [16]: 62%
- Activity [17]: 8%
- Activity [18]: 75%
- Activity [19]: 97%
- Activity [20]: 100%
- Activity [21]: 100%
- Activity [22]: 103%
- Activity [23]: 82%
- Activity [24]: 86%
- Activity [25]: 90%
- Activity [26]: 83%
- Activity [27]: 50%
- Activity [28]: 63%
- Activity [29]: 104%
